Reference: the supplement of paper PMC10307832

What was measured:
Assay in all cases: relative viability (nuclei count vs DMSO), 5 days (fraction); higher = more cells survive
[1] = compound: Cn1cc(-c2cnn3c(N)c(Br)c([C@@H]4CCCNC4)nc23)cn1 + Nc1ncn([C@H]2C[C@H](O)[C@@H](CO)O2)c(=O)n1 [Decitabine] (partner 2 µM)
In short: (§1)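 Lung cancer cell lines were pin-tool dosed in 1536-well plates on the day after seeding, with either a lone drug or a fixed anchor-drug dose plus five library-drug doses (not always all listed) in √10 steps. Nuclei were counted on 4× images after 5 days. Relative viability is the ratio of treated-well to vehicle-well nuclei counts, with each value a median of duplicate plates.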

[2] = compound: Cn1cc(-c2cnn3c(N)c(Br)c([C@@H]4CCCNC4)nc23)cn1 + CC(C)C[C@H](NC(=O)[C@H](Cc1ccccc1)NC(=O)c1cnccn1)B(O)O [Bortezomib] (partner 0.002 µM)
In short: as §1

[3] = compound: Cn1cc(-c2cnn3c(N)c(Br)c([C@@H]4CCCNC4)nc23)cn1 + Cc1cc(Nc2cc(N3CCN(C)CC3)nc(Sc3ccc(NC(=O)C4CC4)cc3)n2)n[nH]1 [Tozasertib] (partner 0.1 µM)
In short: as §1

[4] = compound: Cn1cc(-c2cnn3c(N)c(Br)c([C@@H]4CCCNC4)nc23)cn1 + NC(=O)Nc1cc(-c2cccc(F)c2)sc1C(=O)N[C@H]1CCCNC1 [AZD7762] (partner 0.2 µM)
In short: as §1

| Cell Line | relative viability ([1]; first compound 0.05 µM) | relative viability ([1]; first compound 0.1581 µM) | relative viability ([1]; first compound 0.5 µM) | relative viability ([1]; first compound 1.581 µM) | relative viability ([1]; first compound 5 µM) | relative viability ([2]; first compound 0.05 µM) | relative viability ([2]; first compound 0.1581 µM) | relative viability ([2]; first compound 0.5 µM) | relative viability ([2]; first compound 1.581 µM) | relative viability ([2]; first compound 5 µM) | relative viability ([3]; first compound 0.05 µM) | relative viability ([3]; first compound 0.1581 µM) | relative viability ([3]; first compound 0.5 µM) | relative viability ([3]; first compound 1.581 µM) | relative viability ([3]; first compound 5 µM) | relative viability ([4]; first compound 0.05 µM) | relative viability ([4]; first compound 0.1581 µM) | relative viability ([4]; first compound 0.5 µM) | relative viability ([4]; first compound 1.581 µM) | relative viability ([4]; first compound 5 µM) |
| --- | --- | --- | --- | --- | --- | --- | --- | --- | --- | --- | --- | --- | --- | --- | --- | --- | --- | --- | --- | --- |
| LCLC-97TM1 | 0.22 | 0.297 | 0.222 | 0.278 | 0.295 | 0.318 | 0.546 | 0.626 | 0.333 | 0.204 | 0.202 | 0.286 | 0.188 | 0.269 | 0.194 | 0.296 | 0.367 | 0.264 | 0.217 | 0.222 |
| HARA | 0.691 | 0.497 | 0.624 | 0.584 | 0.41 | 1.19 | 1.16 | 1.18 | 0.764 | 0.224 | 0.115 | 0.616 | 0.0879 | 0.0826 | 0.0524 | 0.401 | 0.34 | 0.292 | 0.26 | 0.199 |
| HCC-78 | 0.733 | 0.729 | 0.783 | 0.675 | 0.492 | 0.482 | 0.567 | 0.556 | 0.511 | 0.39 |  | 0.456 | 0.404 | 0.407 | 0.279 | 0.515 | 0.647 | 0.648 | 0.563 | 0.386 |
| NCI-H1666 | 0.629 | 0.699 | 0.719 | 0.698 | 0.713 | 1.09 | 0.804 | 0.786 | 0.802 | 0.721 | 0.608 | 0.589 | 0.606 | 0.522 | 0.511 | 0.78 | 0.82 | 0.813 | 0.845 | 0.861 |
| NCI-H2347 | 0.611 | 0.649 | 0.637 | 0.662 | 0.621 | 0.839 | 1.01 | 0.747 | 0.727 | 0.869 | 0.539 | 0.563 | 0.518 | 0.49 | 0.44 | 0.77 | 0.635 | 0.76 | 0.65 | 0.532 |
| NCI-H838 | 0.483 | 0.574 | 0.545 | 0.51 | 0.309 | 0.918 | 0.845 | 0.83 | 0.701 | 0.551 | 0.272 | 0.244 | 0.312 | 0.264 | 0.19 | 0.991 | 0.92 | 1 | 0.879 | 0.84 |
| NCI-H2023 | 0.228 | 0.219 | 0.21 | 0.167 | 0.127 | 1.04 | 0.923 | 0.733 | 0.235 | 0.147 | 0.361 | 0.254 | 0.238 | 0.15 | 0.122 |  |  |  |  |  |
| 201T | 0.809 | 0.856 | 0.844 | 0.882 | 0.93 | 1.04 | 1.09 | 1.1 | 1.07 | 1.17 | 0.932 | 0.992 | 0.898 | 0.776 | 0.758 | 0.597 | 0.618 | 0.661 | 0.506 | 0.498 |
| NCI-H1915 | 0.225 | 0.255 | 0.299 | 0.24 | 0.311 | 1.14 | 1.01 | 1.06 | 0.784 | 1.03 | 0.47 | 0.493 | 0.44 | 0.359 | 0.411 | 0.666 | 0.67 | 0.718 | 0.69 | 0.709 |
| NCI-H2009 | 0.384 | 0.369 | 0.377 | 0.37 | 0.387 | 1.01 | 1.06 | 0.972 | 0.834 | 0.826 | 0.745 | 0.702 | 0.651 | 0.565 | 0.448 |  |  |  |  |  |
| BEN | 0.701 | 0.763 | 0.663 | 0.709 | 0.629 | 0.688 | 0.824 | 0.729 | 0.774 | 0.553 | 0.606 | 0.494 | 0.467 | 0.714 | 0.489 | 0.659 | 0.69 | 0.688 | 0.667 | 0.533 |
| PC-14 | 0.237 | 0.2 | 0.206 | 0.186 | 0.123 | 0.936 | 0.971 | 0.83 | 0.549 | 0.355 | 0.634 | 0.458 | 0.594 | 0.438 | 0.274 | 0.348 | 0.273 | 0.332 | 0.277 | 0.182 |
| SK-MES-1 | 0.356 | 0.413 | 0.336 | 0.355 | 0.204 |  |  |  |  |  | 0.987 | 0.675 | 0.57 | 0.268 | 0.137 |  |  |  |  |  |
| NCI-H727 | 0.919 | 0.858 | 0.923 | 0.696 | 0.705 | 0.818 | 0.887 | 0.901 | 0.623 | 0.412 | 0.695 | 0.489 | 0.806 | 0.503 | 0.468 | 0.591 | 0.52 | 0.512 | 0.536 | 0.472 |
| NCI-H1355 | 0.344 | 0.332 | 0.378 | 0.417 | 0.358 | 1.23 | 1.33 | 1.17 | 1.15 | 1.24 | 0.553 | 0.614 | 0.509 | 0.45 | 0.423 | 0.718 | 0.846 | 0.672 | 0.623 | 0.458 |
| NCI-H1975 | 0.433 | 0.458 | 0.767 | 0.388 | 0.396 | 0.444 | 0.403 | 0.296 | 0.32 | 0.31 | 0.868 | 0.757 | 0.63 | 0.532 | 0.51 | 0.752 | 0.718 | 0.72 | 0.664 | 0.571 |
| LK-2 | 0.323 | 0.337 | 0.254 | 0.272 | 0.23 |  |  |  |  |  | 0.196 | 0.17 | 0.162 |  | 0.161 | 0.303 | 0.408 | 0.33 | 0.315 | 0.209 |
